System: termites
Experiment: Anti-termite effectiveness of chlorfenapyr incorporated in a concrete block (barrier test after NF X41-541)
Type: in vivo
Experimental: A block of concrete, 10 cm high, with passages for the termites, is poured, incorporating the treatment product in the mixing water.
After drying and an infiltration test, the test set-up and performance follow the standard NF X41-541. The barrier effect of the specimen is verified by evaluation of the mortality and penetration of the termites in the clean compartment containing blocks of wood. An evaluation of the blocks of wood following the scoring of EN NF 117 is performed at the end of the test.

Compound: CCOCn1c(-c2ccc(Cl)cc2)c(C#N)c(Br)c1C(F)(F)F [chlorfenapyr]
- Barrier effect of treated concrete against termites (concrete treated with chlorfenapyr, overall conclusion): effectively prevents termites from attacking a building
- Rate of survival % (series A: concentration studied 0.05 % (m/m), retention in the concrete: product 261 ppm, chlorfenapyr 56 ppm, 132 g/m^3): 0%
- Rate of survival % (series B: concentration studied 0.1 % (m/m), retention in the concrete: product 521 ppm, chlorfenapyr 112 ppm, 265 g/m^3): 0%
- Rate of survival % (series C: concentration studied 0.3 % (m/m), retention in the concrete: product 1567 ppm, chlorfenapyr 337 ppm, 795 g/m^3): 0%
- Rate of survival % (series D: concentration studied 0.6 % (m/m), retention in the concrete: product 3132 ppm, chlorfenapyr 673 ppm, 1588 g/m^3): 0%

— patent US7931742B2, “Biocidal Structural Barrier (BSB)” (BASF SE, priority 2005, dated 2011)
